What all share (type): physicochemical
Series [1] can be described thus: Solubility of clarithromycin in tocopherol oil phase (crystals on cooling). As to the method:
Clarithromycin was obtained as the free base from Wockhardt (Delhi, India). Vitamin E Succinate (VESA) was obtained from Eastman (Freeport Tenn.). Capmul® MCM was obtained from Abitec (Janesville Wis.); Poloxamer® 407 (Pluronic® F-127) from BASF (Parsippany N.J.); PEG-400 from Spectrum Chemicals (Gardenia Calif.), and d-δ-tocopherol from Sigma Chemicals (St Louis MO). An oil phase consisting of d-δ-tocopherol and Capmul MCM was prepared using 2 parts of δ-tocopherol. Dry ethanol was used to dissolve the components at 70° C. and the ethanol was then removed under vacuum. […] A tocol-soluble ion pair of this compound was then produced by addition of a stoichiometric equivalent of Vitamin E succinate (VESA) as the free acid. […] The clarithromycin was now sufficiently soluble in the tocopherol oil to allow subsequent preparation of the emulsion. The oil was then re-heated to 45° C. and degassed immediately prior to emulsification as described below.

Series [2] can be described thus: Doxorubicin ion pair solubility in vitamin E and emulsification. As to conditions: ion pair with vitamin E phosphate free acid at 2:1 molar ratio. The text has this:
A fine emulsion can be prepared using high pressure homogenization to reduce particle size.

Series [3] is described as follows: Release rate by dialysis in a diffusion chamber model. The note with it: against 20% glycerol, 3% Poloxamer 407, pH 7.4, 37° C. As for the experimental part: Amiodarone HCl and a tocol emulsion containing amiodarone and tocopherol phosphate as a tocol-soluble binary ion pair, prepared as mentioned above, were dialyzed against 20% glycerol, 3% Poloxamer 407 at pH 7.4 and 37° C.
The rate of free or complexed drug exiting the dialysis chamber provides an indirect estimate of the “sustained release” properties of the emulsion and the strength of the ion pair species.

A short description of series [4]: Erythromycin solubility in oils.

SMILES strings stand for the structures. Structures can show the parent of a compound that is named as a salt.

For the compound `CC[C@H]1OC(=O)[C@H](C)[C@@H](O[C@H]2C[C@@](C)(OC)[C@@H](O)[C@H](C)O2)[C@H](C)[C@@H](O[C@@H]2O[C@H](C)C[C@H](N(C)C)[C@H]2O)[C@](C)(OC)C[C@@H](C)C(=O)[C@H](C)[C@@H](O)[C@]1(C)O` [Clarithromycin], the “Crystallization upon cooling of the oil” value is “no crystals formed” in series [1] (after addition of a stoichiometric equivalent of Vitamin E succinate (free acid), re-dissolution in ethanol and cooling); “crystals of clarithromycin were observed” in series [1] (d-δ-tocopherol/Capmul MCM oil phase with surfactant, ethanol removed, without Vitamin E succinate).

For `COc1cccc2c1C(=O)c1c(O)c3c(c(O)c1C2=O)C[C@@](O)(C(=O)CO)C[C@@H]3O[C@H]1C[C@H](N)[C@H](O)[C@H](C)O1` [doxorubicin free base, Doxorubicin], in series [2], the “Solubility of ion pair in vitamin E” value is “soluble in vitamin E”.

Regarding `CCCCc1oc2ccccc2c1C(=O)c1cc(I)c(OCCN(CC)CC)c(I)c1` [Amiodarone HCl], the “Rate of dialysis / diffusion out of the dialysis chamber” value in series [3] is “linear with concentration”.

As for `CC[C@H]1OC(=O)[C@H](C)[C@@H](O[C@H]2C[C@@](C)(OC)[C@@H](O)[C@H](C)O2)[C@H](C)[C@@H](O[C@@H]2O[C@H](C)C[C@H](N(C)C)[C@H]2O)[C@](C)(O)C[C@@H](C)C(=O)[C@H](C)[C@@H](O)[C@]1(C)O` [Erythromycin], the “solubility in medium-chain triglycerides (MCT)” value in series [4] (MCT) is roughly 4 % w/w. Besides, the “solubility in α-tocopherol” value in series [4] (α-tocopherol) was “approximately 10 % w/w”.

For the origin of these results see patent US6479540B1, “Compositions of tocol-soluble therapeutics” (Sonus Pharmaceuticals, Inc., priority 1999, dated 2002).
